This data set is described as follows: clinical food-effect pharmacokinetic study in healthy human men, fasted vs high-fat breakfast. The note with it: male, in vivo, po, 40 mg; for Tmax / Cmax / half-life: single oral 40 mg; for AUC(0-inf): single oral 40 mg dose of hot melt extrusion composition; for half-life: read-out: Apparent Terminal t1/2 (converted). The method, then: The pharmacokinetic profile of this composition of suvorexant was also tested by administering a single dose of the formulation to healthy human men. […] In the second period of this clinical study, the 7 subjects in each treatment groups were crossed over and received the other treatment.
The fed/fasted GMR and 90% confidence intervals for AUC0-inf were 0.98 (0.90, 1.07).

The structures appear in SMILES notation. Where two headings read alike, the source gives them in different places.

On to `Cc1ccc(-n2nccn2)c(C(=O)N2CCN(c3nc4cc(Cl)ccc4o3)CC[C@H]2C)c1` [Suvorexant, 5-chloro-2-{(5R)-5-methyl-4-[5-methyl-2-(2H-1,2,3-triazol-2-yl)benzoyl]-1,4-diazepan-1-yl}-1,3-benzoxazole], for which the Tmax by setting is: (Tmax (Suvorexant Fed/Suvorexant Fasted), fed/fasted) 1.5 h; (Fasted, read-out: Tmax) 2 h; (Fed (high-fat breakfast), read-out: Tmax) 3 h. The AUC(0-inf) reads like this: (Fasted (8-hour fast)) 13.2 µM·h; (Fed (standard high-fat breakfast)) 13 µM·h. Moreover, the Cmax by setting is: (Fasted) 1000 nM; (Fed (high-fat breakfast)) 1100 nM. The half-life reads like this: (Fasted) 654 min; (Fed (high-fat breakfast)) 708 min.
